Experimental data taken from ChEMBL document CHEMBL1201862, “PubChem BioAssay data set” (2004).
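Dose response: 5 concentrations. Exposure: 48 h. Format: 96-well plates. Endpoint: linear interpolation; highest concentration if not reached. The concentration for 50% growth inhibition is given as GI50.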 Calls of active or inactive are those of the source. Cut-off read from the data, not from the text of the source: active = GI50 up to about 1.1 µM and inactive = higher.

Assays:
Assay in all cases: NCI-60 cell line screen, 48 h
COLO 205 = tested on: COLO 205
DU-145 = tested on: DU-145
HL-60 = tested on: HL-60
HOP-62 = tested on: HOP-62
IGROV-1 = tested on: IGROV-1
KM12 = tested on: KM12
MDA-MB-435 = tested on: MDA-MB-435
Malme-3M = tested on: Malme-3M
NCI/ADR-RES = tested on: NCI/ADR-RES
OVCAR-4 = tested on: OVCAR-4
RPMI-8226 = tested on: RPMI-8226
RXF 393 = tested on: RXF 393
SF-295 = tested on: SF-295
SF-539 = tested on: SF-539
SK-MEL-5 = tested on: SK-MEL-5
SNB-19 = tested on: SNB-19
SNB-75 = tested on: SNB-75
SR = tested on: SR
TK-10 = tested on: TK-10
U-251 = tested on: U-251

| Structure (SMILES) | GI50 (COLO 205) | GI50 (DU-145) | GI50 (HL-60) | GI50 (HOP-62) | GI50 (IGROV-1) | GI50 (KM12) | GI50 (MDA-MB-435) | GI50 (Malme-3M) | GI50 (NCI/ADR-RES) | GI50 (OVCAR-4) | GI50 (RPMI-8226) | GI50 (RXF 393) | GI50 (SF-295) | GI50 (SF-539) | GI50 (SK-MEL-5) | GI50 (SNB-19) | GI50 (SNB-75) | GI50 (SR) | GI50 (TK-10) | GI50 (U-251) |
| --- | --- | --- | --- | --- | --- | --- | --- | --- | --- | --- | --- | --- | --- | --- | --- | --- | --- | --- | --- | --- |
| NS(=O)(=O)c1ccc(NC(=O)Nc2cccc3ccccc23)cc1 | 86.9 µM (inactive) | 23.8 µM (inactive) | > 100 µM (inactive) | 34.4 µM (inactive) | 53.6 µM (inactive) | > 100 µM (inactive) | 81.8 µM (inactive) | 35.7 µM (inactive) | 46 µM (inactive) | 42.2 µM (inactive) | > 100 µM (inactive) | 30.5 µM (inactive) | 35.6 µM (inactive) | 23.8 µM (inactive) | > 100 µM (inactive) | 21.1 µM (inactive) | 22.5 µM (inactive) | 72.3 µM (inactive) | 31 µM (inactive) | 18.3 µM (inactive) |
| O=C(O)c1nnsc1-c1csnn1 | > 100 µM (inactive) | > 100 µM (inactive) | > 100 µM (inactive) | > 100 µM (inactive) | > 100 µM (inactive) | > 100 µM (inactive) | > 100 µM (inactive) | > 100 µM (inactive) | > 100 µM (inactive) | > 100 µM (inactive) | > 100 µM (inactive) | > 100 µM (inactive) | > 100 µM (inactive) | > 100 µM (inactive) | > 100 µM (inactive) | > 100 µM (inactive) | > 100 µM (inactive) | 54.6 µM (inactive) | 74.8 µM (inactive) | > 100 µM (inactive) |
| C=C1[C@H](OCC(C)C)[C@@H](OC(=O)C(C)CC)[C@@H](O)C(C)(C)/C=C/[C@H](C)C(=O)[C@@]2(O)C[C@H](C)[C@H](O)[C@@H]2[C@H]1OC(=O)C(C)CC (some centres undefined) | 0.904 µM (active) | 7.83 µM (inactive) | 1.05 µM (active) | 2.17 µM (inactive) | 7.98 µM (inactive) | 5.41 µM (inactive) | 1.7 µM (inactive) | 6.62 µM (inactive) | 6.82 µM (inactive) | 5.45 µM (inactive) | 0.516 µM (active) | 6.14 µM (inactive) | 2.39 µM (inactive) | 3.05 µM (inactive) | 2.23 µM (inactive) | 14.5 µM (inactive) | 1.41 µM (inactive) | 3.84 µM (inactive) | 4 µM (inactive) | 5.82 µM (inactive) |
| O=[N+]([O-])c1ccc2nc(=S)[nH]n2c1 | > 100 µM (inactive) | > 100 µM (inactive) | > 100 µM (inactive) | > 100 µM (inactive) | > 100 µM (inactive) | > 100 µM (inactive) | > 100 µM (inactive) | > 100 µM (inactive) | > 100 µM (inactive) | > 100 µM (inactive) | > 100 µM (inactive) | > 100 µM (inactive) | > 100 µM (inactive) | > 100 µM (inactive) | > 100 µM (inactive) | > 100 µM (inactive) | > 100 µM (inactive) | > 100 µM (inactive) | > 100 µM (inactive) | > 100 µM (inactive) |
| CN(Cc1ccccc1)/C(=N\C#N)N(Cc1ccccc1)Cc1ccccc1 | 19 µM (inactive) | 39.9 µM (inactive) | 30.1 µM (inactive) | 27.7 µM (inactive) | 24.3 µM (inactive) | 18.7 µM (inactive) | 15.1 µM (inactive) | 25.2 µM (inactive) | 19.8 µM (inactive) | 24.4 µM (inactive) | 21 µM (inactive) | 28.9 µM (inactive) | 14.1 µM (inactive) | 19.8 µM (inactive) | 18.4 µM (inactive) | 40.2 µM (inactive) | 30.5 µM (inactive) | 0.0383 µM (active) | 33 µM (inactive) | 28.2 µM (inactive) |
| O=C(NCc1cccnc1)NCc1cccnc1 | > 100 µM (inactive) | > 100 µM (inactive) | > 100 µM (inactive) | > 100 µM (inactive) | > 100 µM (inactive) | > 100 µM (inactive) | > 100 µM (inactive) | > 100 µM (inactive) | > 100 µM (inactive) | > 100 µM (inactive) | > 100 µM (inactive) | > 100 µM (inactive) | > 100 µM (inactive) | > 100 µM (inactive) | > 100 µM (inactive) | > 100 µM (inactive) | > 100 µM (inactive) | > 100 µM (inactive) | > 100 µM (inactive) | > 100 µM (inactive) |
| CC1(C)C(O)c2ccccc2OC1N1CCN(C2Oc3ccccc3C(O)C2(C)C)CC1 (centres undefined) | > 100 µM (inactive) | > 100 µM (inactive) | > 100 µM (inactive) | > 100 µM (inactive) | > 100 µM (inactive) | > 100 µM (inactive) | > 100 µM (inactive) | > 100 µM (inactive) | > 100 µM (inactive) | > 100 µM (inactive) | > 100 µM (inactive) | > 100 µM (inactive) | > 100 µM (inactive) | > 100 µM (inactive) | > 100 µM (inactive) | > 100 µM (inactive) | > 100 µM (inactive) | > 100 µM (inactive) | > 10 µM (inactive) | > 100 µM (inactive) |
| CCOC(=O)/C(=C\NC[C@@H](C)O)c1nc2ccccc2[nH]1 | 69.5 µM (inactive) | > 100 µM (inactive) | 20.4 µM (inactive) | > 100 µM (inactive) | 37.8 µM (inactive) | 57.4 µM (inactive) | > 100 µM (inactive) | > 100 µM (inactive) | 44.3 µM (inactive) | 83.8 µM (inactive) | 29.1 µM (inactive) | > 100 µM (inactive) | 61.1 µM (inactive) | > 100 µM (inactive) | 29.5 µM (inactive) | > 100 µM (inactive) | > 100 µM (inactive) | 0.0473 µM (active) | 54.2 µM (inactive) |  |
| CCOC(=O)c1sc2ncnc(N)c2c1C | 19.6 µM (inactive) | 68.7 µM (inactive) | > 100 µM (inactive) | 80 µM (inactive) | 22.1 µM (inactive) | 47.1 µM (inactive) | 36 µM (inactive) | 82.8 µM (inactive) | > 100 µM (inactive) | 20.4 µM (inactive) | 95.5 µM (inactive) | 22.8 µM (inactive) | 79.4 µM (inactive) | 75.5 µM (inactive) | 36.8 µM (inactive) | 63.7 µM (inactive) | 35.1 µM (inactive) | 24.8 µM (inactive) | 34 µM (inactive) | > 100 µM (inactive) |
| N#Cc1c(Cl)nc2ccccc2c1N=[N+]=[N-] | 1.88 µM (inactive) | 14.9 µM (inactive) | 1.8 µM (inactive) | 17.3 µM (inactive) | 1.95 µM (inactive) | 6.4 µM (inactive) | 7.38 µM (inactive) | 2.18 µM (inactive) | 9.33 µM (inactive) | 1.91 µM (inactive) | 2.11 µM (inactive) | 1.44 µM (inactive) | 8.55 µM (inactive) | 2.15 µM (inactive) | 14.2 µM (inactive) | 14.8 µM (inactive) | 8.67 µM (inactive) | 0.875 µM (active) | 4.82 µM (inactive) | 5.19 µM (inactive) |
| Cc1ccc(S(=O)(=O)NNC(=O)Nc2ccc([N+](=O)[O-])cc2)cc1 | 42.3 µM (inactive) | 83.2 µM (inactive) | 36.1 µM (inactive) | 27.9 µM (inactive) | 35.2 µM (inactive) | 23.8 µM (inactive) | 55 µM (inactive) | 76 µM (inactive) | 27.4 µM (inactive) | 26.2 µM (inactive) | 20 µM (inactive) | > 100 µM (inactive) | 36.6 µM (inactive) | 50.7 µM (inactive) | 29 µM (inactive) | 69.5 µM (inactive) | 72.9 µM (inactive) | 42.6 µM (inactive) | 67.3 µM (inactive) | 31 µM (inactive) |
| CCCCCC1=C/C(=C\c2[nH]c(-c3ccc[nH]3)cc2OC)N=C1C | < 0.01 µM (active) | < 0.01 µM (active) | < 0.01 µM (active) | 0.0111 µM (active) | 0.017 µM (active) | < 0.01 µM (active) | < 0.01 µM (active) | 0.0448 µM (active) | < 0.01 µM (active) | < 0.01 µM (active) | < 0.01 µM (active) | 0.0115 µM (active) | < 0.01 µM (active) | 0.0127 µM (active) | 0.0316 µM (active) | 0.0562 µM (active) | < 0.01 µM (active) | < 0.01 µM (active) | 0.0329 µM (active) | 0.0122 µM (active) |
| N#C[BH2-][n+]1ccc(C(=O)NNCc2cccc(C(F)(F)F)c2)cc1 | 14.1 µM (inactive) | 33.1 µM (inactive) | 23.4 µM (inactive) | 12.8 µM (inactive) | 30.1 µM (inactive) | 4.76 µM (inactive) | 17.7 µM (inactive) | 3.54 µM (inactive) | 11.6 µM (inactive) | 6.14 µM (inactive) | 21.4 µM (inactive) | 8.22 µM (inactive) | 6.68 µM (inactive) | 4.08 µM (inactive) | 1.83 µM (inactive) | 13.6 µM (inactive) | 3.85 µM (inactive) | 26.9 µM (inactive) | 27.3 µM (inactive) | 7.71 µM (inactive) |
| CCCNC1=C2CC(C)CC(OC)[C@@H](O)[C@H](C)/C=C(\C)C(OC(N)=O)C(OC)/C=C\C=C(/C)C(=O)NC(=CC1=O)C2=O (some centres undefined) | 0.0319 µM (active) | 0.111 µM (active) | 0.214 µM (active) | 0.245 µM (active) | 0.498 µM (active) | 0.0362 µM (active) | 0.274 µM (active) | 0.0612 µM (active) | 3.31 µM (inactive) | 26.6 µM (inactive) | 0.762 µM (active) | 1.56 µM (inactive) | 0.222 µM (active) | 0.698 µM (active) | 0.0637 µM (active) | 0.637 µM (active) | 0.318 µM (active) | 0.31 µM (active) | 0.201 µM (active) | 0.579 µM (active) |
